Test results: US9216985B2, “3-aryl-2-((arylamino)methyl)quinazolin-4-(3H)-ones” (SciFluor Life Sciences, Inc., priority 2013, dated 2015)
pIC50: −log10 of the molar value.

How the values were obtained:
PI3Kβ = PI3Kβ (Homo sapiens (Human), UniProt P42338); assay: Homogeneous Time Resolved Fluorescence (HTRF) lipid kinase assay; assay type: biochemical; details: HTRF format, 10 μM ATP
Procedure: (§1) The ability of the compounds of the present invention to inhibit the activity of four PI3K isoforms, PI3Kα, PI3Kβ, PI3Kγ, and PI3Kδ, were determined using a commercially available lipid kinase assay run in Homogeneous Time Resolved Fluorescence (HTRF) format.
(§2) Assay principle: The PIP3 product is detected by displacement of biotin-PIP3 from an energy transfer complex consisting of Europium labeled anti-GST monoclonal antibody, a GST-tagged pleckstrin homology (PH) domain, biotinylated PIP3 and Streptavidin-Allophycocyanin (APC). Excitation of Europium in the complex results in an energy transfer to the APC and a fluorescent emission at 665 nm. The PIP3 product formed by PI 3-Kinase(h) activity displaces biotin-PIP3 from the complex resulting in a loss of energy transfer and thus a decrease in signal.
(§3) This is a 3-step reaction: First, the kinase reaction with PIP2 substrate is carried out in the presence of ATP, and the reaction is quenched with stop Solution, and then finally detect by adding Detection Mixture followed by incubation.
(§4) Assay Buffer: HEPES 50 mM (pH7.0), NaN3 0.02%, BSA 0.01%, Orthovanadate 0.1 mM, 1% DMSO.
(§5) Detection buffer: HEPES 10 mM (pH7.0), BSA 0.02%, KF 0.16 M, EDTA 4 mM.
(§6) Substrate: […] PIP2 substrate (PI(4,5)P2)
(§7) ATP: 10 μM ATP under standard conditions
(§8) Control Inhibitor: PI-103
(§9) • 1. Prepare substrate in freshly prepared Reaction Buffer • 2. Deliver kinase into the substrate solution and gently mix • 3. Deliver compounds in 100% DMSO into the kinase reaction mixture by Acoustic technology (Echo550; nanolitter range), incubate for 10 min at room temp • 4. Deliver ATP into the reaction mixture to initiate the reaction • 5. Incubate for 30 min at 30° C. • 6. Quench the reaction with Stop Solution. • 7. Add Detection Mixture, and incubate for overnight. • 8. Measure HTRF: Ex=320 nm, ratio of Em=615 nm and Em=665 nm. Data Analysis:
(§10) The emission ratio is converted into μM PIP3 production based on PIP3 standard curves. The nonlinear regression to obtain the standard curve and IC50 values are performed using Graphpad Prism software.

PI3Kδ = PI3Kδ (Homo sapiens (Human), UniProt O00329); assay: as above; assay type: biochemical; details: HTRF format, 10 μM ATP
Procedure: as §1, §2, §3, §4, §5, §6, §7, §8, §9, §10

PI3Kγ = PI3Kγ (Homo sapiens (Human), UniProt P48736); assay: as above; assay type: biochemical; details: HTRF format, 10 μM ATP
Procedure: as §1, §2, §3, §4, §5, §6, §7, §8, §9, §10

PI3Kα = PI3Kα (Homo sapiens (Human), UniProt P42336); assay: as above; assay type: biochemical; details: HTRF format, 10 μM ATP
Procedure: as §1, §2, §3, §4, §5, §6, §7, §8, §9, §10

PI3Kβ human (1-1070) = PI3Kβ human (1-1070) (Homo sapiens (Human), UniProt P42338); assay: Reporter displacement assay; assay type: binding
Procedure: (§11) The ability of the compounds of the present invention to inhibit the activity of four PI3K isoforms, PI3Kα, PI3Kβ, PI3Kγ, and PI3Kδ, were determined using the commercially available reporter displacement assay that is based on reporter probes that are designed to bind to the site of interest of the target protein. The proximity between reporter and protein results in the emission of an optical signal. Compounds that bind to the same site as the reporter probe displace the probe, causing signal diminution. Reporter displacement is measured over time after addition of compounds at various concentrations. The assay conditions were:
(§12) Assay plates: 384 well U bottom, PP, black, low volume (Corning, 3676)
(§13) Full probe displacement: absence of enzyme and compound
(§14) Full probe binding: absence of compound
(§15) Reaction buffer: 20 mM Mops, pH 7.01 mM DTT, 0.01% Tween 20

PI3Kδ human fl = PI3Kδ human fl (Homo sapiens (Human), UniProt O00329); assay: Reporter displacement assay; assay type: binding
Procedure: as §11, §12, §13, §14, §15

PI3Kγ human (144-1102) = PI3Kγ human (144-1102) (Homo sapiens (Human), UniProt P48736); assay: Reporter displacement assay; assay type: binding
Procedure: as §11, §12, §13, §14, §15

PI3Kα human fl = PI3Kα human fl (Homo sapiens (Human), UniProt P42336); assay: Reporter displacement assay; assay type: binding
Procedure: as §11, §12, §13, §14, §15

PI3Kβ, sequence (P42338 whole entry, canonical isoform): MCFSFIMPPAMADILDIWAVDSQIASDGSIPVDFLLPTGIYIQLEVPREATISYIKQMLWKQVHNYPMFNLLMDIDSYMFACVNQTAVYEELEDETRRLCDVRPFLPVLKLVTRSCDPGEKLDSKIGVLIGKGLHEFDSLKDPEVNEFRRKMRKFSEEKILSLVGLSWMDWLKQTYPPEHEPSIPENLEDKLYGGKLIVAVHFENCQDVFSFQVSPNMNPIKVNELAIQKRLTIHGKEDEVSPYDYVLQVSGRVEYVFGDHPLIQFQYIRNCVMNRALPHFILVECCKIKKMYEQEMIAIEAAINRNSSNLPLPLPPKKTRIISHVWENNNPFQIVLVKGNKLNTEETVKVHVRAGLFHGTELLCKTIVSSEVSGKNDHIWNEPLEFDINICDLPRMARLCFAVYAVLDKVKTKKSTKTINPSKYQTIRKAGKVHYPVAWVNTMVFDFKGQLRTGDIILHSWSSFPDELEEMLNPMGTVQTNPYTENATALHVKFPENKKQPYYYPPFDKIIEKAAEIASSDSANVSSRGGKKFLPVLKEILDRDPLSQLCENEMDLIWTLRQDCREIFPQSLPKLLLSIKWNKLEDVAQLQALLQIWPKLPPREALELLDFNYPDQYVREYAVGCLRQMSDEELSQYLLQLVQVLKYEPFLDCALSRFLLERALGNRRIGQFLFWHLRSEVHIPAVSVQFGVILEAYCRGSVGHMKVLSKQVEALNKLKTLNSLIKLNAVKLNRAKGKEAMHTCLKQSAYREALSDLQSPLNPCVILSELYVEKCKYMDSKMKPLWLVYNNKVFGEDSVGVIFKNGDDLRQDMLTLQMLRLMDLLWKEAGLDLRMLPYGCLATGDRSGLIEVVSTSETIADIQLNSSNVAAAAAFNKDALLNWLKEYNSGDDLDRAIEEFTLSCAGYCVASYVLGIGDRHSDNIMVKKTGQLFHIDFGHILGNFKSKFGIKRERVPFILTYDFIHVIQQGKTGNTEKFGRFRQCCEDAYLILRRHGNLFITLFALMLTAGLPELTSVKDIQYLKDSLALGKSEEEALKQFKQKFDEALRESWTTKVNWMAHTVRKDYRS
PI3Kβ, sequence (P27986 whole entry partner, canonical isoform): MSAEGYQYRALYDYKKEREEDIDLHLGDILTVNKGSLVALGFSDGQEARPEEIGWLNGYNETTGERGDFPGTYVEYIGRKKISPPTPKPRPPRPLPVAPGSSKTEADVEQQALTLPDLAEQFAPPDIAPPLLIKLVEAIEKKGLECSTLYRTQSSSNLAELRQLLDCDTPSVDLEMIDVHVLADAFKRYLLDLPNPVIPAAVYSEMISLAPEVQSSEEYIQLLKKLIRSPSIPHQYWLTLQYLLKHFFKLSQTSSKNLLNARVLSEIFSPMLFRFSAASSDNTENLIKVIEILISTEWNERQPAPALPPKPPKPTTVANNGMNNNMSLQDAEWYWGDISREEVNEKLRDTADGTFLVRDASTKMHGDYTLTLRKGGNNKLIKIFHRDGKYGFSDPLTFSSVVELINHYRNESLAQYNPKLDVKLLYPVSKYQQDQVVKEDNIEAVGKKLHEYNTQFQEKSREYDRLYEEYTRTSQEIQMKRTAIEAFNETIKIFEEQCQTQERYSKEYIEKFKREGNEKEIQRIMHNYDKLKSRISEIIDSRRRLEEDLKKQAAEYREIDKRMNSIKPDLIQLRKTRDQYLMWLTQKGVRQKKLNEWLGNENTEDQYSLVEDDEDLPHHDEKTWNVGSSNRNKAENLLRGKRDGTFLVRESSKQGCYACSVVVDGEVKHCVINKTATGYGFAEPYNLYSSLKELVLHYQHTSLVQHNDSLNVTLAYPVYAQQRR
PI3Kδ, sequence (O00329 whole entry): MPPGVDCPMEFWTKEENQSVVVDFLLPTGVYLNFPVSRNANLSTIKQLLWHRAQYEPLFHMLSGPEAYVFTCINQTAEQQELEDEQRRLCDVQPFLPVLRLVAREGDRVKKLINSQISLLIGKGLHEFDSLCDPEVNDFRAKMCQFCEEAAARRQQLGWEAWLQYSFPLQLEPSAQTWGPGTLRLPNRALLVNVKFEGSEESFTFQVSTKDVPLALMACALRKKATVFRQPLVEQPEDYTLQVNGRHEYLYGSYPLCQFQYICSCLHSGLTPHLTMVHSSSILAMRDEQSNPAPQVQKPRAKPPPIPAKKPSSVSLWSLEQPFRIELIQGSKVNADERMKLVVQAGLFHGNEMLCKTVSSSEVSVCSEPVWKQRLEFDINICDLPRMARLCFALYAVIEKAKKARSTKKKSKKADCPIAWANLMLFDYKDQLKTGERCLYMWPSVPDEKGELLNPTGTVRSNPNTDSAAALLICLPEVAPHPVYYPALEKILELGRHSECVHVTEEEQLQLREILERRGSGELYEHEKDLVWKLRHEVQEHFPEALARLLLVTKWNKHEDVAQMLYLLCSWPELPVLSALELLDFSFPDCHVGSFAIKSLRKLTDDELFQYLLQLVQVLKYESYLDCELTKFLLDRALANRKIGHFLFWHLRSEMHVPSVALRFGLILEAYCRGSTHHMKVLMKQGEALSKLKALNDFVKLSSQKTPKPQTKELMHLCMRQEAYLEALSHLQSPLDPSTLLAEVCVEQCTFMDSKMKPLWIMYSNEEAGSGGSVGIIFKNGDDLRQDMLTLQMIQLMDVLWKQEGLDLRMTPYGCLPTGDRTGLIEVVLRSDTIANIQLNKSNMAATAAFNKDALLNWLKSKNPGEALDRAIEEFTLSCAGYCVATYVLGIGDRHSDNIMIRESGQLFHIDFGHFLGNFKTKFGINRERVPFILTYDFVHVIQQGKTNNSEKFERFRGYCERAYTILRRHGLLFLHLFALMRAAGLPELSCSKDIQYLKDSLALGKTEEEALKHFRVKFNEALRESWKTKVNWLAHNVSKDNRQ
PI3Kδ, sequence (P27986 whole entry partner): as the sequence (P27986 whole entry partner, canonical isoform) above
PI3Kα, sequence (P42336 whole entry): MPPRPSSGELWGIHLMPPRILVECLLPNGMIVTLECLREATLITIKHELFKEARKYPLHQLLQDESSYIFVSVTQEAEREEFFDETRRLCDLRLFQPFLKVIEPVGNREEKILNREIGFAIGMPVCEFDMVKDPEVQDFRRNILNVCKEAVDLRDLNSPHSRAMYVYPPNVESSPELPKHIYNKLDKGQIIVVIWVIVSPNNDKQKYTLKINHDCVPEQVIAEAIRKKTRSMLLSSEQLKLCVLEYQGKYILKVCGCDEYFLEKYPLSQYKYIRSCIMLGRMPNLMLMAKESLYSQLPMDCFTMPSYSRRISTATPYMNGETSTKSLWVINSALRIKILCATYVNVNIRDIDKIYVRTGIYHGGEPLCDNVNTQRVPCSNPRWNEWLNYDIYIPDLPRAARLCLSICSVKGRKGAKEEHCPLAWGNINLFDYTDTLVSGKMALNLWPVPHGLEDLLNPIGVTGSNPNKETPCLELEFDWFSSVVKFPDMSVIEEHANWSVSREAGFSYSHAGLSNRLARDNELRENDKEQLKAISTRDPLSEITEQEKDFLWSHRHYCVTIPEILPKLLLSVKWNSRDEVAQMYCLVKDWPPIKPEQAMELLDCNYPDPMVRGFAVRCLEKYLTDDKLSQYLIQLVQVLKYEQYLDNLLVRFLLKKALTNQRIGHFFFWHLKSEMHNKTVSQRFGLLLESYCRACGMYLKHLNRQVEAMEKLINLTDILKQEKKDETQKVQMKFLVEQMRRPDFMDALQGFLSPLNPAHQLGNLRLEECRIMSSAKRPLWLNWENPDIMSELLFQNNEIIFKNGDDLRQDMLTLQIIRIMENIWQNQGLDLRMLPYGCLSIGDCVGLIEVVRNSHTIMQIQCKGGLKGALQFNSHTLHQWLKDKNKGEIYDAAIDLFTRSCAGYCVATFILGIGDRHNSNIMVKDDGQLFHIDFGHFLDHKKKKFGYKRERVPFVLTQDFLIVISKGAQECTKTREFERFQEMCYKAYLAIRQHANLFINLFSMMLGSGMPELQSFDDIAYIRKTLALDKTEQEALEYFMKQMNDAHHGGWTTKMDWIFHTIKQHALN
PI3Kα, sequence (P27986 whole entry partner): as the sequence (P27986 whole entry partner, canonical isoform) above
PI3Kγ, sequence (P48736 whole entry): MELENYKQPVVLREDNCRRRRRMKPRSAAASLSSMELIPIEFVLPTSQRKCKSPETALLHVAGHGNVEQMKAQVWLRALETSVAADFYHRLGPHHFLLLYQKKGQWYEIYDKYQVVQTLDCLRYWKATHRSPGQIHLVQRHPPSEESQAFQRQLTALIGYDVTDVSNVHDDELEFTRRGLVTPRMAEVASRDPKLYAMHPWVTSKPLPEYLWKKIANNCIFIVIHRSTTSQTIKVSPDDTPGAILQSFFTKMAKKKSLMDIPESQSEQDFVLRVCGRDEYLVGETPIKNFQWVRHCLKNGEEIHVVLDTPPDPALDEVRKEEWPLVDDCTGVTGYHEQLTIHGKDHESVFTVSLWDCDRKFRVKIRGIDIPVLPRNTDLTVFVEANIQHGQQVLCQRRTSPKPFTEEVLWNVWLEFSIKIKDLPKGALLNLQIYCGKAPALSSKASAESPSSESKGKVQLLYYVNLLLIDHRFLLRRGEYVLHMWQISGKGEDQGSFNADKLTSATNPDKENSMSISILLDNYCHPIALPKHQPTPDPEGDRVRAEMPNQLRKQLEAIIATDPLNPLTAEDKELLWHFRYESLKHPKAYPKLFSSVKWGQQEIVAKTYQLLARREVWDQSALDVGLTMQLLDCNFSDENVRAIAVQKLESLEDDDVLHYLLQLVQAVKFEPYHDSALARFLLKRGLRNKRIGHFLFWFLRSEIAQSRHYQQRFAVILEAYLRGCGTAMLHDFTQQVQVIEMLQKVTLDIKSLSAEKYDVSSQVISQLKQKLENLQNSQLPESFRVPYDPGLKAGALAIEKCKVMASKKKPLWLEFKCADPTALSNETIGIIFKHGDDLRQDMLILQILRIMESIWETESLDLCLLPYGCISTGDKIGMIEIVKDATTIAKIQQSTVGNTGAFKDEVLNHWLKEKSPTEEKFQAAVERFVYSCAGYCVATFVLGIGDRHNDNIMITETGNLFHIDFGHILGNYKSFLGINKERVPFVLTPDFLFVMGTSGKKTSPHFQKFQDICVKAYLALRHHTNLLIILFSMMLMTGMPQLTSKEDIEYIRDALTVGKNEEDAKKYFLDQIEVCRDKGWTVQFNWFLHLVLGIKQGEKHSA

Q: Which results are given for `CC[C@H](Nc1ncnc2[nH]ccc12)c1nc2cccc(F)c2c(=O)n1-c1ccccc1` [Compound 1A, (S)-2-(1-((7H-pyrrolo[2,3-d]pyrimidin-4-yl)amino)propyl)-5-fluoro-3-phenylquinazolin-4(3H)-one]?
A: pIC50 (PI3Kβ): 6.19; pIC50 (PI3Kδ): 8.10; pIC50 (PI3Kγ): 5.92; pIC50 (PI3Kα): 5.43

Q: With `O=c1c2c(F)cccc2nc([C@H](CC(F)(F)F)Nc2ncnc3[nH]cnc23)n1-c1ccccc1` [Compound 2A, (S)-2-(1-((9H-purin-6-yl)amino)-3,3,3-trifluoropropyl)-5-fluoro-3-phenylquinazolin-4(3H)-one] as the compound, how does the pIC50 (PI3Kβ) read?
A: 5.41

Q: And the pIC50 (PI3Kδ)?
A: 7.10

Q: What about the pIC50 (PI3Kγ) of the same compound?
A: 5.74

Q: What does the source list for `CC[C@H](Nc1ncnc2[nH]cnc12)c1nc2cccc(F)c2c(=O)n1-c1cccc(CC(F)(F)F)c1` [Compound 6A, (S)-2-(1-((9H-purin-6-yl)amino)propyl)-5-fluoro-3-(3-(2,2,2-trifluoroethyl)phenyl)quinazolin-4(3H)-one]?
A: pIC50 (PI3Kβ): 5.51; pIC50 (PI3Kδ): 7.70; pIC50 (PI3Kγ): 6.52; pIC50 (PI3Kα): 4.82

Q: `CC[C@H](Nc1ncnc2[nH]ccc12)c1nc2cccc(F)c2c(=O)n1-c1cccc(CC(F)(F)F)c1` [Compound 7A, (S)-2-(1-((7H-pyrrolo[2,3-d]pyrimidin-4-yl)amino)propyl)-5-fluoro-3-(3-(2,2,2-trifluoroethyl)phenyl)quinazolin-4(3H)-one] was tested. Which pIC50 (PI3Kβ) did it give?
A: 5.24

Q: And the pIC50 (PI3Kδ)?
A: 7.30

Q: And the pIC50 (PI3Kγ)?
A: 5.89

Q: What about the pIC50 (PI3Kα) of the same compound?
A: 4.55

Q: `CC[C@H](Nc1ncnc2[nH]cnc12)c1nc2cccc(F)c2c(=O)n1-c1cccc(OCC(F)(F)F)c1` [Compound 10A, (S)-2-(1-((9H-purin-6-yl)amino)propyl)-5-fluoro-3-(3-(2,2,2-trifluoroethoxy)phenyl)quinazolin-4(3H)-one] was tested. Which pIC50 (PI3Kδ) did it give?
A: 7.70

Q: And the pIC50 (PI3Kγ)?
A: 6.13

Q: `CC[C@H](Nc1ncnc2[nH]ccc12)c1nc2cccc(F)c2c(=O)n1-c1cccc(OCC(F)(F)F)c1` [Compound 11A, (S)-2-(1-((7H-pyrrolo[2,3-d]pyrimidin-4-yl)amino)propyl)-5-fluoro-3-(3-(2,2,2-trifluoroethoxy)phenyl)quinazolin-4(3H)-one] was tested. Which pIC50 (PI3Kδ) did it give?
A: 6.96

Q: And the pIC50 (PI3Kγ)?
A: 5.52

Q: And the pIC50 (PI3Kα)?
A: 3.94

Q: With `C[C@H](Nc1ncnc2[nH]ccc12)c1nc2cccc(F)c2c(=O)n1-c1ccc(OCC(F)(F)F)cc1` [Compound 15A, (S)-2-(1-((7H-pyrrolo[2,3-d]pyrimidin-4-yl)amino)ethyl)-5-fluoro-3-(4-(2,2,2-trifluoroethoxy)phenyl)quinazolin-4(3H)-one] as the compound, how does the pIC50 (PI3Kβ) read?
A: 5.14

Q: And the pIC50 (PI3Kδ)?
A: 8.05

Q: What about the pIC50 (PI3Kγ) of the same compound?
A: 6.13

Q: What about the pIC50 (PI3Kα) of the same compound?
A: 5.01

Q: What does the source list for `CC[C@H](Nc1ncnc2[nH]ccc12)c1nc2cccc(F)c2c(=O)n1-c1ccc(OCC(F)(F)F)cc1` [Compound 16A, (S)-2-(1-((7H-pyrrolo[2,3-d]pyrimidin-4-yl)amino)propyl)-5-fluoro-3-(4-(2,2,2-trifluoroethoxy)phenyl)quinazolin-4(3H)-one]?
A: pIC50 (PI3Kβ): 4.98; pIC50 (PI3Kδ): 7.05; pIC50 (PI3Kγ): 5.27

Q: `C[C@H](Nc1ncnc2[nH]cc(F)c12)c1nc2cccc(F)c2c(=O)n1-c1cccc(OCC(F)(F)F)c1` [Compound 17A, (S)-5-fluoro-2-(1-((5-fluoro-7H-pyrrolo[2,3-d]pyrimidin-4-yl)amino)ethyl)-3-(3-(2,2,2-trifluoroethoxy)phenyl)quinazolin-4(3H)-one] was tested. Which pIC50 (PI3Kβ) did it give?
A: 5.47

Q: What about the pIC50 (PI3Kδ) of the same compound?
A: 8.10

Q: And the pIC50 (PI3Kγ)?
A: 5.92

Q: What about the pIC50 (PI3Kα) of the same compound?
A: 5.00

Q: With `C[C@H](Nc1ncnc2[nH]ccc12)c1nc2cccc(F)c2c(=O)n1-c1cccc(OCC(F)(F)C(F)(F)F)c1` [Compound 19A, (S)-2-(1-((7H-pyrrolo[2,3-d]pyrimidin-4-yl)amino)ethyl)-5-fluoro-3-(3-(2,2,3,3,3-pentafluoropropoxy)phenyl)quinazolin-4(3H)-one] as the compound, how does the pIC50 (PI3Kβ) read?
A: < 5.00

Q: And the pIC50 (PI3Kδ)?
A: 6.72

Q: And the pIC50 (PI3Kγ)?
A: 5.35

Q: What about the pIC50 (PI3Kα) of the same compound?
A: < 5.00

Q: With `C[C@H](Nc1ncnc2[nH]ccc12)c1nc2cccc(Cl)c2c(=O)n1-c1cccc(OCC(F)(F)F)c1` [Compound 20A, (S)-2-(1-((7H-pyrrolo[2,3-d]pyrimidin-4-yl)amino)ethyl)-5-chloro-3-(3-(2,2,2-trifluoroethoxy)phenyl)quinazolin-4(3H)-one] as the compound, how does the pIC50 (PI3Kβ) read?
A: 5.96

Q: And the pIC50 (PI3Kδ)?
A: 8.00

Q: And the pIC50 (PI3Kγ)?
A: 6.34

Q: And the pIC50 (PI3Kα)?
A: 5.39

Q: `O=c1c2c(F)cccc2nc(CNc2ncnc3[nH]ccc23)n1-c1cccc(OCC(F)(F)F)c1` [Compound 21A, 2-(((7H-pyrrolo[2,3-d]pyrimidin-4-yl)amino)methyl)-5-fluoro-3-(3-(2,2,2-trifluoroethoxy)phenyl)quinazolin-4(3H)-one] was tested. Which pIC50 (PI3Kβ) did it give?
A: < 5.00

Q: What about the pIC50 (PI3Kδ) of the same compound?
A: 5.68

Q: How did the pIC50 (PI3Kβ human (1-1070)) turn out when `C[C@H](Nc1ncnc2[nH]ccc12)c1nc2cccc(F)c2c(=O)n1-c1cccc(OCC(F)F)c1` [Compound 22A, (S)-2-(1-((7H-pyrrolo[2,3-d]pyrimidin-4-yl)amino)ethyl)-3-(3-(2,2-difluoroethoxy)phenyl)-5-fluoroquinazolin-4(3H)-one] was run?
A: 5.68

Q: What about the pIC50 (PI3Kδ human fl) of the same compound?
A: 7.70

Q: What about the pIC50 (PI3Kγ human (144-1102)) of the same compound?
A: 5.92

Q: And the pIC50 (PI3Kα human fl)?
A: 5.01
